In patent US12605374B2, “Methods for drug screening and compositions useful for the inhibition of cell proliferation and/or cell survival” (The Brigham and Women's Hospital, Inc., priority 2019, dated 2026):

Experiments:
[1] = molecular target: T1, recombinant human Topoisomerase I (Homo sapiens, UniProt P11387); test: Topoisomerase I and DNA binding gel electrophoresis assay; type: biochemical; conditions: concentrations up to 100 mM (so in the source), versus DMSO
T1 construct: purchased TopoGEN, Inc. TG2005H
T1 sequence (P11387 1-765): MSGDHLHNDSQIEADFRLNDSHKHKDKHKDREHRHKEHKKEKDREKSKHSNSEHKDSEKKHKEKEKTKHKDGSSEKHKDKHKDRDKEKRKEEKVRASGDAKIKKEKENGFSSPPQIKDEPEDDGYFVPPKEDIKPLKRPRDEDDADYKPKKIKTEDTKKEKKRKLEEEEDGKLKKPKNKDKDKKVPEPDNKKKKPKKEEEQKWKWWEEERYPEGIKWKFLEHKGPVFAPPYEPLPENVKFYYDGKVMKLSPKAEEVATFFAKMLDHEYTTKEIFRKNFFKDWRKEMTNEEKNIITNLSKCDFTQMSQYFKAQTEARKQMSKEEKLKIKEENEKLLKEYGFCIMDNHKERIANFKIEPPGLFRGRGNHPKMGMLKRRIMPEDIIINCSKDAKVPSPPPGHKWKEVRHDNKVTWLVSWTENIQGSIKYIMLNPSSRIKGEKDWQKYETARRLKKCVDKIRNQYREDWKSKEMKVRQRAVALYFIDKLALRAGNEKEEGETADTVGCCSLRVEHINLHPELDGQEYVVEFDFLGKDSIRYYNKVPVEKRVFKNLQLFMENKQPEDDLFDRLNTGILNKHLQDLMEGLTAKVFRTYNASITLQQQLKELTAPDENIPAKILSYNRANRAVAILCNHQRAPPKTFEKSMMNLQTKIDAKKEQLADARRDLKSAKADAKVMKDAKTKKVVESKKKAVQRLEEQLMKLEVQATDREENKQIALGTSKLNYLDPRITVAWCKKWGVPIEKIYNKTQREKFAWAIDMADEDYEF
Protocol: FIG. 12: Topoisomerase I and DNA binding assay for DA5. The effect of DA5 on Topoisomerase-mediated DNA unwinding is measured through a gel electrophoresis assay (see Methods).
0.5 ug of pHOT-1 supercoiled DNA (TopoGEN, Inc. TG2030-2) was combined with 2× Topoisomerase I assay buffer (50 mM Tris-HCL (ph7.9), 1 mM EDTA, 1 mM DTT, 20% (v/v) glycerol, 50 mM NaCl), nuclease free water and either DMSO vehicle control, m-AMSA positive control (100-1000 uM; TopoGEN, Inc. […] TG2005H) was added to treatments corresponding to lanes 3-12 with 2 ul of dilution buffer (5 mM Tris-HCL (pH 7.9), 1 mM EDTA, 1 mM DTT, 50% (v/v) glycerol, 500 mM NaCl) added to control treatments lacking enzyme (lanes 2, 13 and 14). Reactions were mixed and incubated at 37° C. for 30 minutes. Reactions were terminated with the addition of 20 ul nuclease free water and 50 ul of 1-butanol (water-saturated) followed by vortex and centrifugation at 13,000 rpm for 1 minute. The lower aqueous phase was removed and added to 50 ul chloroform/isoamyl alcohol (24/1) and 50 ul of 2×STEB buffer (40% (w/v) sucrose, 100 mM Tris-HCL (pH 8), 1 mM EDTA, 0.5 mg/ml bromophenol blue) followed by mixing and centrifugation at 13,000 rpm for 1 minute. […] The gel was stained with ethidium bromide for 15 minutes followed by de-staining in distilled water for 10 minutes. Gels were exposed and images acquired using the iBrightFL1000 gel documentation system (Invitrogen).

[2] = tested on: zebrafish embryos; test: Respiration rate analysis (Seahorse XF24 oxygen consumption); type: in vivo; conditions: embryos from 5 hpf, versus DMSO control
Protocol: Analysis of embryonic respiration was performed using a Seahorse XF24 analyzer (Agilent). Embryos at 5 hours post fertilization were arrayed in E3 media at 3 per well in a 24-well standard Seahorse plate using an isolating mesh (as in Stackley et al^72). Each plate contained four replicates of each indicated compound of interest, as well as 4 control wells receiving the equivalent DMSO as contained in the indicated compound solution, and 4 wells with no embryos present to act as a baseline for oxygen content of the media. The sample baseline was read for 5 cycles (3 minute mix, 2 minute wait, 5 minute measure), then compounds were introduced in a single 40-cycle injection phase (3 minute mix, 2 minute wait, 5 minute measure). Measurement data were exported using Seahorse software (Agilent) and averaged over 3 experimental days.

Structure (SMILES)	effect on Topoisomerase-mediated DNA unwinding (gel electrophoresis) [1]	respiration rate (oxygen consumption rate) [2]
CC[C@@]1(O)C(=O)OCc2c1cc1n(c2=O)Cc2cc3ccccc3nc2-1 [Camptothecin, reference compound]	dose-dependent effect on the amount of circular DNA present	–
CC[C@@H]1/C=C/C=C/C[C@H](C)[C@H](O)[C@](C)(O)C(=O)[C@H](C)[C@@H](O)[C@H](C)C(=O)[C@H](C)[C@@H](O)[C@H](C)/C=C/C(=O)O[C@H]2[C@@H](C)[C@@H](CC1)O[C@@]1(CC[C@@H](C)[C@@H](C[C@H](C)O)O1)[C@@H]2C [oligomycin A, reference compound]	–	exponential reduction in respiration rate stabilizing at a baseline rate
